Results as given in a melting point compilation (Tetko et al.; mined from patent text by program, amines drawn as free bases though some values may be those of a salt).

Structure (SMILES)	melting point [°C]
COc1ccc(CCN2CCC(C(O)(c3cccs3)c3cccs3)CC2)cc1	153 to 155
COc1ccc(Br)c(CC(C#N)C(=O)O)c1OC (configuration not stated)	120 to 122
COC(=O)Cc1ccc(OCCNC(=O)C2Cc3ccccc3N2S(=O)(=O)c2ccc(-c3cccc(C(F)(F)F)c3)cc2)c(OC)c1 (configuration not stated)	52 to 60
FC(F)(F)c1ccc(NC2CCNCC2)nc1	128
O=C(Nc1ccccc1)N1C(=S)C2(CCCCC2)NC12CCCCC2	143 to 144
OCc1cc(F)cc(Br)c1	41 to 43
O=C(Nc1n[nH]c(=S)s1)N[C@@H](Cc1c(F)c(F)c(F)c(F)c1F)C(=O)N1CCN(c2ccccn2)CC1	233 to 235
COc1cc2c(cc1O)CCC1C2CCC2(C)C(O)C=CC12 (configuration not stated)	191 to 193
CN1CCN(c2cc(Cl)cc3c2c(=O)n(Cc2cccc4ccccc24)c(=O)n3Cc2ccccc2)CC1	75 to 89
CC(C)(C(=O)c1ccc(N2CCOCC2)cc1)N1CCOCC1	114 to 116
CC(=O)c1ccc(Cl)c(S(N)(=O)=O)c1	175 to 176
CCCC(=O)OC1(C(C)=O)C(C)CC2C3CCC4=CC(=O)C=CC4(C)C3(Cl)C(=O)CC21C (configuration not stated)	154 to 155
CCN(CC)c1nc(C)cc(O)n1	131 to 132
COc1cccc2c1CCN(C(=O)C(F)(F)F)CC2	74 to 76
O=Cc1ccc(-c2ccc(Cl)cc2)cc1	108 to 112
CC(C)(C)OC(=O)Nc1ccc(F)c(F)c1	135 to 137
O=C(O)c1ccc(Cl)c(S)c1	209 to 211
CC(C)(C)OC(=O)NC(Cc1ccccc1)C(O)C(Cc1ccccc1)NC(=O)[C@H](CC(N)=O)NC(=O)OCc1ccccc1 (some centres not stated)	216 to 217
CN1CC(CCCCN2CCN(c3ncccn3)CC2)OC1=O (configuration not stated)	74 to 76
CC(C)(C)[Si](Oc1ccc(Br)cc1)(c1ccccc1)c1ccccc1	56
CN1CC(CN2CC(=O)NC2=O)=CC2c3cccc4[nH]cc(c34)CC21 (configuration not stated)	204 to 206
CNC(=S)N(Cc1cccnc1)N(C)C	101 to 102
OC[C@H]1O[C@@H]1c1cc(F)cc(F)c1	48 to 50
CCOC(=O)C1(C(=O)OCC)CC(c2ccccc2[N+](=O)[O-])C(O)N1C=O (configuration not stated)	109 to 111
O=C=Nc1c(Cl)cc(Cl)cc1Cl	65 to 66
Cc1oc(C=Cc2cccc(Cl)c2)nc1C(=O)O	213 to 214
CC(C)(C)c1cc(NC(=O)NCCCl)cc(C(C)(C)C)c1O	169 to 171

Structure (SMILES)	melting point [°C]
NC(=O)Nc1ccc(/C=C/C(=O)O)cc1	> 350
O=c1[nH]cccc1-c1cccnc1	189 to 192
OC(c1ccccc1)(c1cc2ccccc2s1)C1CCN(CCc2ccccc2)CC1 (configuration not stated)	144 to 146
CC1(C)C2CC[C@]1(C)C(=O)C(C(=O)Nc1cccc(C(F)(F)F)c1)C2=O (some centres not stated)	60 to 62
Cn1nc(Cl)c2c(=O)n3c(nc21)SCC3	222
COc1ccccc1N1CCN(CCn2cnc3sc4c(c3c2=O)CCNC4)CC1	168 to 170
CC1(C)COC(c2cc(F)c(F)cc2F)=N1	53 to 54
O=C1C=C(Nc2ccccc2F)CCC1	116 to 118
COc1cccc(/C=C/C(=O)Nc2cccc(NC(=N)c3ccccc3)c2)c1	148 to 149
O=C(Nc1c([N+](=O)[O-])cnn1-c1c(Cl)cc(C(F)(F)F)c(Cl)c1Cl)C(F)F	146 to 151
O=C(OC1CCN(c2ncc(-c3ccccc3Cl)cn2)CC1)N1CCC(O)CC1	124 to 126
CC(C)(C)c1cc(C=Cc2cc(C=Cc3cc(C(C)(C)C)cc(C(C)(C)C)c3)cc(CO)c2)cc(C(C)(C)C)c1	226 to 228
C=CCN1CCC23CC(=O)CCC2(O)C1Cc1cccc(OC)c13 (configuration not stated)	166 to 167
O=C(O)COc1ccc(C2=CC(=O)CCC2C2CCCC2)c(Cl)c1Cl (configuration not stated)	206 to 207
C=C(C(=C)c1cc(C)sc1C)c1cc(C)sc1C	43 to 44
O=c1ccc(S(=O)(=O)c2ccc(-c3ccccc3)cc2)n[nH]1	219 to 220
COc1cccc2c1CC(=O)CO2	53 to 54
COc1ccc([C@@H]2Cc3cc(OC)ccc3NC(=O)[C@@H]2O)cc1	171 to 173
CC(C)(C)OC(=O)N[C@H]1C=C[C@@H](CO)C1	68 to 70
CC1CCc2c(N3CCNCC3)ccc3c2N1C=C(C(=O)O)C3 (configuration not stated)	264 to 265
CC(C)C(C(=O)O)c1ccc(OC(F)F)c([N+](=O)[O-])c1 (configuration not stated)	88 to 90
CN1C(=O)[C@H](NC(=O)c2cc3cc(Cl)ccc3[nH]2)N=C(c2ccccc2)c2ccccc21	160 to 164
COc1ccc(C2=NN(c3ccc(CCBr)cc3)C(=O)[C@H]3CC=CC[C@@H]23)cc1OC (relative stereo)	126 to 127
CCCCCCNC(=O)[C@@H]1CCCN1C(=O)[C@@H](N)C(C)C	105 to 106
C=C(C)CSCC(C)C1CC=C2C3=C(CCC21C)C1(C)CCC(O)C(C)(C)C1CC3 (configuration not stated)	128 to 132
CC(C)c1c(/C=C/[C@@H]2C[C@@H](O)CC(=O)O2)n(-c2ccc(F)cc2)c(=O)c2ccccc12	207 to 209
O=C(O)c1cccc2c1CCCc1ccccc1-2	137 to 139

More lines, now with the values ahead:

melting point [°C]	Structure (SMILES)
83.4 to 88.7	Cc1cc(I)ccc1Nc1c(-c2nnn[nH]2)ccc(F)c1F
63 to 66	CC(C)(C)OC(=O)Nc1ccc(-c2ccccc2F)cc1NC(=O)CC(=O)c1sccc1C#N
155 to 159	COC(=O)c1cccc(NC(=O)C=C(c2ccc(Cl)cc2)c2ccc(Cl)cc2)c1
129 to 131	COC(=O)c1ccc(OCCCCCCc2ccc3cc(OCc4ccccc4)c(OCc4ccccc4)cc3c2)cc1O
141 to 143	CC(C(=O)O)c1ccc2c(c1)C(=O)Cc1cccnc1S2 (configuration not stated)
203 to 204	CCCCN(CCCC)c1ccc(C=Cc2ccc(C=CC3=C(C#N)C(=C(C#N)C#N)OC3(c3ccccc3)C(F)(F)F)s2)c(OC)c1 (configuration not stated)
159 to 160	COCn1ncc2cc(-c3nnc(SCc4cccc(C(F)(F)F)c4)o3)ccc21
169 to 170	O=S(=O)(Nc1ccc2c(OCc3ccc(-c4ccc(Cl)c(Cl)c4)cc3Cl)cccc2c1)C(F)(F)F
172 to 174	Cn1nccc1CCS(=O)Cc1ccc(OCc2coc(/C=C/c3ccc(C(F)(F)F)cc3)n2)cc1 (configuration not stated)
98 to 102	CC(C)(C)OC(=O)NCCCN1CCC(CCCCNC(N)=NC(=O)c2nc(Cl)c(N)nc2N)CC1
124 to 125	CCCCCCOc1ccc(Nc2cc(Nc3ccc4c(c3)OCCO4)ncc2F)cc1
148 to 150	CCSc1cc(C)nc(SCC)c1NC(=O)CCCSc1nc2cccc(C(F)(F)F)c2o1
205 to 226	O=C(OC[C@@H]1CC(c2ccc(-c3ccc(N4C[C@H](Cn5ccnn5)OC4=O)cc3F)cn2)=NO1)c1cnccn1
184 to 186	Cc1nc(N2CCN(Cc3ccc(OC(F)(F)F)cc3)C2=O)sc1C(=O)NCC1CC1
104 to 106	Cc1nc(C)c(Cl)c(NCc2nccc(SCCCCSCc3ccncc3)c2C)n1
168 to 169	O=C1c2ccccc2C(=O)C1c1ccncn1
120 to 121	Cn1nc(CNC(=O)Nc2ccccc2)nc1NCCCOc1cccc(CN2CCCCC2)c1
218 to 220	CC(=O)c1ccc(-n2c(-c3sc(Nc4ccc(Cl)cc4)nc3-c3ccccc3)nc3ccccc3c2=O)cc1
198 to 200	N#Cc1cc(-c2ccoc2)c2ccc(COc3cc(F)cc(-c4ccccn4)c3)cc2n1
103 to 105	CCOC(=O)Cc1c(C)n(Cc2ccccc2)c2cccc(OCc3coc(-c4ccccc4)n3)c12
76	CCSc1c(C=NOCc2ccccc2)c(=O)n(C)c(=O)n1C
194 to 201	COC(=N)c1ccc(-c2cc3ncn([C@H](C)[C@](O)(Cn4cncn4)c4ccc(F)cc4F)c(=O)c3s2)cc1

melting point [°C]	Structure (SMILES)
139 to 142	O=c1oc(-c2ccc(OCCCc3ccccc3)cc2)cc(O)c1SCCc1ccccc1
161 to 162	COc1cccc(C(=O)c2[nH]c3cc(Cl)ccc3c2NC(C)=O)c1
140 to 143	N#CCC(CC#N)c1cccc(OCc2ccccc2)c1
214 to 217	CC(C)(COc1ccc(Cl)cc1)C(=O)C(Oc1ccc(Cl)cc1)n1ccnc1 (configuration not stated)
168	CCCCS(=O)(=O)Nc1ccc(Oc2ccc3cccnc3c2)cc1
202	CC(C)N(C(=O)COc1c(F)cc(-c2ccc(C(=O)O)cc2)cc1[N+](=O)[O-])C(C)C
114 to 120	Cc1cc(C)c(CNc2c(C)nn(C)c2NCC(C)(C)C)c(C)c1
290 to 292	CC(=O)N1CCN(c2ccc(Nc3nc(N)c(C(=O)c4sccc4C)s3)cc2)CC1
44 to 49	CC(CCc1ccccc1)NC1CCC(c2ccc(O)cc2)CC1 (racemic)
109 to 110	CCOC(=O)CC(NC(=O)C1=C(C(=O)Nc2ccc(Cl)cc2F)CCCC1)C(=O)OCC (configuration not stated)
153 to 155	Cc1cc(CNC(=O)c2ccnc(N3CCN(Cc4ccc(F)cc4)C3=O)c2)no1
194 to 196	Cc1c(Cl)c(OCC(=O)O)c(Cc2ccc3c(Cl)cccc3c2)c(O)c1C=O
110 to 112	CC(C)c1nc2ccccc2n1CCCCCSc1nc(-c2ccc(N(C)C)cc2)c(-c2ccc(N(C)C)cc2)[nH]1
113 to 115	CC(C)N1Cc2cc(CO)ccc2N(CCN2CC=C(c3c[nH]c4cc(F)ccc34)CC2)S1(=O)=O
82.2 to 84.2	CCc1ccccc1-c1cccc(Br)c1OCc1cccc(C(=O)NCCO)c1
> 310	CC(=O)Nc1ccc(-c2ncc(C(=O)O)c(O)n2)cc1
124	CC(c1ncnc(Cl)c1Cl)C(O)(Cn1cncn1)c1ccc(F)cc1F (configuration not stated)
55	OCCc1ccc(OCc2ccc(Cl)cc2Cl)cc1
102 to 104	CCCc1cc(C)c2oc(Cc3ccc(OC)cc3)c(C)c2c1O
115 to 120	Clc1ccc(Cc2cccc(-c3ncc4c(n3)CCCC4)n2)cn1
215 to 218	COc1ccc(NC(=O)c2ccc(Cl)c(Cl)c2)cc1[N+](=O)[O-]
